What was measured:
[1] = test system: HCV replicon in HUH-7 cells; test: HCV replicon FRET assay (confirmed in replicon luciferase reporter assay); type: cell-based; conditions: Hepatitis C virus, 96 h, HUH-7 cells expressing HCV 1b replicon, 4 days
Description: An HCV replicon whole cell system was established as described by Lohmann V, Korner F, Koch J, Herian U, Theilmann L, Bartenschlager R., Science 285(5424):110-3 (1999). This system enabled us to evaluate the effects of our HCV Protease compounds on HCV RNA replication. Briefly, using the HCV strain 1b sequence described in the Lohmann paper (Assession number: AJ238799), an HCV cDNA was synthesized by Operon Technologies, Inc. (Alameda, Calif.), and the full-length replicon was then assembled in plasmid pGem9zf(+) (Promega, Madison, Wis.) using standard molecular biology techniques. The replicon consists of (i) the HCV 5′ UTR fused to the first 12 amino acids of the capsid protein, (ii) the neomycin phosphotransferase gene (neo), (iii) the IRES from encephalomyocarditis virus (EMCV), and (iv) HCV NS3 to NS5B genes and the HCV 3′ UTR. Plasmid DNAs were linearized with ScaI and RNA transcripts were synthesized in vitro using the T7 MegaScript transcription kit (Ambion, Austin, Tex.) according to manufacturer's directions. In vitro transcripts of the cDNA were transfected into the human hepatoma cell line, HUH-7. […] Resulting cell lines were characterized for positive and negative strand RNA production and protein production over time.
The HCV replicon FRET assay was developed to monitor the inhibitory effects of compounds described in the disclosure on HCV viral replication. HUH-7 cells, constitutively expressing the HCV replicon, were grown in Dulbecco's Modified Eagle Media (DMEM) (Gibco-BRL) containing 10% Fetal calf serum (FCS) (Sigma) and 1 mg/ml G418 (Gibco-BRL). Cells were seeded the night before (1.5×10^4 cells/well) in 96-well tissue-culture sterile plates. Compound and no compound controls were prepared in DMEM containing 4% FCS, 1:100 Penicillin/Streptomysin (Gibco-BRL), 1:100 L-glutamine and 5% DMSO in the dilution plate (0.5% DMSO final concentration in the assay). Compound/DMSO mixes were added to the cells and incubated for 4 days at 37° C. After 4 days, cells were first assessed for cytotoxicity using alamar Blue (Trek Diagnotstic Systems) for a CC50 reading. The toxicity of compound (CC50) was determined by adding 1/10 volume of alamar Blue to the media incubating the cells. After 4 h, the fluorescence signal from each well was read, with an excitation wavelength at 530 nm and an emission wavelength of 580 nm, using the Cytofluor Series 4000 (Perspective Biosystems). Plates were then rinsed thoroughly with Phosphate-Buffered Saline (PBS) (3 times 150 μl).
As a secondary assay, EC50 determinations from the replicon FRET assay were confirmed in a replicon luciferase reporter assay. […] Following 4 days in a 37° C./5% CO2 incubator, cells were analyzed for Renilla Luciferase activity using the Promega Dual-Glo Luciferase Assay System. […]

[2] = molecular target: T1, HCV NS3/4A protease complex (Hepatitis C virus genotype 1a, UniProt P27958, C1454S/C1711G); test: FRET peptide assay to monitor HCV NS3/4A proteolytic activity; type: biochemical; conditions: recombinant NS3/4A protease complex, strain not stated
T1 construct: DNA encoding the recombinant HCV NS3/4A protease complex (amino acids 1027 to 1711) for these strains; inferred from the pET21b vector and Ni-NTA purification; made in house; host or cells: Escherichia coli BL21 (DE3)
T1 sequence (P27958 1027-1711 C1454S/C1711G, one chain of several): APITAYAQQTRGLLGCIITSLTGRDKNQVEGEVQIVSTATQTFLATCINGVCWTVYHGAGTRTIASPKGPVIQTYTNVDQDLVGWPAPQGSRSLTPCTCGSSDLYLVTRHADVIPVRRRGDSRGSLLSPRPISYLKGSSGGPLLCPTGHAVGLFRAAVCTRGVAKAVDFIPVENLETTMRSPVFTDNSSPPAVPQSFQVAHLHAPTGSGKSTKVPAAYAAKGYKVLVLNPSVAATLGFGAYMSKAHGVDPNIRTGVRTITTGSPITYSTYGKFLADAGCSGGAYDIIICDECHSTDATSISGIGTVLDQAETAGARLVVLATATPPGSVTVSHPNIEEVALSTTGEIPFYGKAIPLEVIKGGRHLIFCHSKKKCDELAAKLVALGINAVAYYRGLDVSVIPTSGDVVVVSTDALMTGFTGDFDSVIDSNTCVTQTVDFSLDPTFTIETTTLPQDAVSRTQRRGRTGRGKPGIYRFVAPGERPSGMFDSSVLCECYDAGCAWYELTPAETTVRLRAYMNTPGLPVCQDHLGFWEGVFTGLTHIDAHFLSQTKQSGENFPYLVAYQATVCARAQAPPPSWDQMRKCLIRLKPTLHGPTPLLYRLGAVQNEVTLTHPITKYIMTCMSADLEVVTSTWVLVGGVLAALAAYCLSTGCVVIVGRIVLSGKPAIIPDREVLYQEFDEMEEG
Description: HCV NS3 protease complexes, derived from the BMS strain, H77 strain or J4L6S strain, were generated, as described below. These purified recombinant proteins were generated for use in a homogeneous assay (see below) to provide an indication of how effective compounds of the present disclosure would be in inhibiting HCV NS3 proteolytic activity.
Serum from an HCV-infected patient was obtained from Dr. T. Wright, San Francisco Hospital. An engineered full-length cDNA (compliment deoxyribonucleic acid) template of the HCV genome (BMS strain) was constructed from DNA fragments obtained by reverse transcription-PCR (RT-PCR) of serum RNA (ribonucleic acid) and using primers selected on the basis of homology between other genotype 1a strains. From the determination of the entire genome sequence, a genotype 1a was assigned to the HCV isolate according to the classification of Simmonds et al. (See P Simmonds, K A Rose, S Graham, S W Chan, F McOmish, B C Dow, E A Follett, P L Yap and H Marsden, J. Clin. Microbiol., 31(6), 1493-1503 (1993)). […] The infectious clones, H77 (1a genotype) and J4L6S (1b genotype) were obtained from R. Purcell (NIH) and the sequences are published in Genbank (AAB67036, see Yanagi, M., Purcell, R. H., Emerson, S. U. and Bukh, J. Proc. Natl. Acad. Sci. U.S.A. 94(16), 8738-8743 (1997); AF054247, see Yanagi, M., St Claire, M., Shapiro, M., Emerson, S. U., Purcell, R. H. and Bukh, J., Virology 244 (1), 161-172. (1998)).
The H77 and J4L6S strains were used for production of recombinant NS3/4A protease complexes. DNA encoding the recombinant HCV NS3/4A protease complex (amino acids 1027 to 1711) for these strains was manipulated as described by P. Gallinari et al. (see Gallinari P, Paolini C, Brennan D, Nardi C, Steinkuhler C, De Francesco R. Biochemistry. 38(17):5620-32, (1999)). Briefly, a three-lysine solubilizing tail was added at the 3′-end of the NS4A coding region. The cysteine in the P1 position of the NS4A-NS4B cleavage site (amino acid 1711) was changed to a glycine to avoid the proteolytic cleavage of the lysine tag. Furthermore, a cysteine to serine mutation was introduced by PCR at amino acid position 1454 to prevent the autolytic cleavage in the NS3 helicase domain. The variant DNA fragment was cloned in the pET21b bacterial expression vector (Novagen) and the NS3/4A complex was expressed in Escherichia coli strain BL21 (DE3) (Invitrogen) following the protocol described by P. Gallinari et al. (see Gallinari P, Brennan D, Nardi C, Brunetti M, Tomei L, Steinkuhler C, De Francesco R., J Viral. 72(8):6758-69 (1998)) with modifications. Briefly, the NS3/4A protease complex expression was induced with 0.5 millimolar (mM) Isopropyl β-D-1-thiogalactopyranoside (IPTG) for 22 hours (h) at 20° C. […]

[3] = test system: HCV; conditions: combination therapy; cited from earlier work

| Compound | EC50 [1] | IC50 [2] | EC50 ([1]; class symbols) | IC50 ([2]; class symbols) | sustained efficacy, share of patients [3] |
| --- | --- | --- | --- | --- | --- |
| C=C[C@@H]1C[C@]1(NC(=O)[C@@H]1C[C@@]2(c3ccc(-c4ccccc4)cc3)CN1C(=O)[C@@H](NC(=O)OC(C)(C)C)CCCCC/C=C/CS2)C(=O)NS(=O)(=O)C1CC1 [Example 1, tert-butyl (3S,13R,15S,E)-13-(biphenyl-4-yl)-15-((1R,2S)-1-(cyclopropylsulfonylcarbamoyl)-2-vinylcyclopropylcarbamoyl)-2-oxo-12-thia-1-azabicyclo[11.2.1]hexadec-9-en-3-ylcarbamate] | 75 nM | 5 nM | – | – | – |
| C=C[C@@H]1C[C@]1(NC(=O)[C@@H]1C[C@@]2(c3ccc(-c4ccccc4)cc3)CN1C(=O)[C@@H](NC(=O)OC(C)(C)C)CCCCCC/C=C/CS2)C(=O)NS(=O)(=O)C1CC1 [Example 2, tert-butyl (3S,14R,16S,E)-14-(biphenyl-4-yl)-16-((1R,2S)-1-(cyclopropylsulfonylcarbamoyl)-2-vinylcyclopropylcarbamoyl)-2-oxo-13-thia-1-azabicyclo[12.2.1]heptadec-10-en-3-ylcarbamate] | – | – | 501 to 1000 nM | 5 to 30 nM | – |
| C=C[C@@H]1C[C@]1(NC(=O)[C@@H]1C[C@@]2(c3ccc(-c4ccccc4)cc3)CN1C(=O)[C@@H](NC(=O)OC(C)(C)C)CCCCCCCCCS2)C(=O)NS(=O)(=O)C1CC1 [Example 3, tert-butyl (3S,14R,16S)-14-(biphenyl-4-yl)-16-((1R,2S)-1-(cyclopropylsulfonylcarbamoyl)-2-vinylcyclopropylcarbamoyl)-2-oxo-13-thia-1-azabicyclo[12.2.1]heptadecan-3-ylcarbamate] | – | – | 501 to 1000 nM | 5 to 30 nM | – |
| C=C[C@@H]1C[C@]1(NC(=O)[C@@H]1C[C@@]2(c3ccc(-c4ccccc4)cc3)CN1C(=O)[C@@H](NC(=O)OC(C)(C)C)CCCC/C=C/CS2)C(=O)NS(=O)(=O)C1CC1 [Example 4, tert-butyl (3S,12R,14S,E)-12-(biphenyl-4-yl)-14-((1R,2S)-1-(cyclopropylsulfonylcarbamoyl)-2-vinylcyclopropylcarbamoyl)-2-oxo-11-thia-1-azabicyclo[10.2.1]pentadec-8-en-3-ylcarbamate] | – | – | 501 to 1000 nM | 31 to 100 nM | – |
| alpha-interferon and ribavirin | – | – | – | – | 40% |
